# Calls of active or inactive are those of the source. The rule behind the calls is not given here.
# Molecular target: T1, Nucleoside diphosphate phosphatase ENTPD5 (Homo sapiens) (UniProt O75356)
# T1 sequence (whole entry): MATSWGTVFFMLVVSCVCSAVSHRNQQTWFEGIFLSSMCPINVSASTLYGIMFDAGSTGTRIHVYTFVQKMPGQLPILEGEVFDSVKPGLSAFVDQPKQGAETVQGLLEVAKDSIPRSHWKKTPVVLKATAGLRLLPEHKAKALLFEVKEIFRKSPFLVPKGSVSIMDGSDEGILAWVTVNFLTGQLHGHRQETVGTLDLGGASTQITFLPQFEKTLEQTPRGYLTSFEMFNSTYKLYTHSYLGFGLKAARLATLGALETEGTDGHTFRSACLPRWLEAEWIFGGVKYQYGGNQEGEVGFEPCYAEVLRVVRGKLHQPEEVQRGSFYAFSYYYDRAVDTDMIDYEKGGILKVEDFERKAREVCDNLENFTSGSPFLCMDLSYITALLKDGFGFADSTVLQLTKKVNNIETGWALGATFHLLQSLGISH
# Assay: Inhibition of human recombinant ENTPD5 expressed in insect cells assessed as reduction in UDP hydrolysis at 1 uM incubated for 1 hr in presence of UMP, GTP and ATP by Escherichia coli UMP kinase pyrH catalyzed UMP phosphorylation coupled luciferase assay
row,Structure (SMILES),inhibition
1,Clc1ccc(C2N=c3c(-c4ccco4)nnc(-c4nc5ccccc5s4)c3=N2)cc1 (stereo unspecified),Active
2,Cc1ccc(-c2cc(C(F)(F)F)c3c(N)c(C(=O)c4ccc5c(c4)OCO5)sc3c2)s1,Active
3,COc1ccc(C(c2cc(C(C)(C)C)c(O)c(C(C)(C)C)c2)N2CCOCC2)cc1 (stereo unspecified),Active
4,COc1ccc2c(c1)C1C=CCC1C(c1ccc([N+](=O)[O-])cc1)N2 (stereo unspecified),Active
5,O=C1c2c(O)cccc2Cc2cccc(O)c21,Active
6,O=C(NC(=S)Nc1ccc(-c2nc3ncccc3o2)cc1)c1ccc(Cl)cc1Cl,Active
7,O=C(c1ccc2c(c1)C1C=CCC1C(c1ccc(Br)cc1)N2)N1CCCCCC1 (stereo unspecified),Active
8,N#CC(c1ccc(Cl)cc1)c1c(Cl)cc(-n2ncc(=O)[nH]c2=O)cc1Cl (stereo unspecified),Active

# Continued, values first:
row,inhibition,Structure (SMILES)
1,Active,O=S(=O)(Nc1cc(-c2c(O)ccc3ccccc23)c(O)c2ccccc12)c1ccc(F)cc1
2,Active,CCC(C)(C)C1CCc2c(sc(NC(=O)c3ccoc3C)c2C(N)=O)C1 (stereo unspecified)
3,Active,O=C(NCCNc1ccc([N+](=O)[O-])cc1)c1ccc(CSc2nnnn2-c2ccccc2)cc1
4,Active,O=C1/C(=C/c2ccc(-c3ccc(Cl)cc3)o2)SC(=S)N1Cc1ccco1
5,Active,O=C(O)c1ccc(-c2ccc(/C=C3\SC(=S)N(c4ccc([N+](=O)[O-])cc4)C3=O)o2)cc1
6,Active,O=C1OC(c2ccccc2)OC(=O)C1=Cc1ccc(-c2cc([N+](=O)[O-])ccc2Cl)o1 (stereo unspecified)
7,Active,CN(C)c1ccc(/C=C(\NC(=O)c2cccc(F)c2)C(=O)N/N=C/c2cc(Cl)cc([N+](=O)[O-])c2O)cc1
8,Active,O=C(O)c1ccc(NC(=O)c2ccc3c(c2)C(=O)N(c2ccc(/N=N/c4ccccc4)cc2)C3=O)cc1
9,Active,C=C[S+]([O-])c1sc(Cl)c(N2CCN(c3c(Cl)sc([S+]([O-])C=C)c3[N+](=O)[O-])CC2)c1[N+](=O)[O-] (stereo unspecified)
10,Active,O=C1C=C/C(=C\NNc2nc(-c3ccccc3)c(CC(=O)O)s2)C(O)=C1
11,Active,Cc1ccc(C2=C/C(=C/c3ccc(C)c([N+](=O)[O-])c3)C(=O)O2)c(C)c1

# Molecular target: T1, Nucleoside diphosphate phosphatase ENTPD5 (Homo sapiens)
# Assay: Inhibition of human recombinant ENTPD5 expressed in insect cells assessed as reduction in UDP hydrolysis up to 10 uM incubated for 1 hr in presence of UMP, GTP and ATP by Escherichia coli UMP kinase pyrH catalyzed UMP phosphorylation coupled luciferase assay
row,Structure (SMILES),inhibition
1,Clc1ccc(C2N=c3c(-c4ccco4)nnc(-c4nc5ccccc5s4)c3=N2)cc1 (stereo unspecified),Dose-dependent effect
2,Cc1ccc(-c2cc(C(F)(F)F)c3c(N)c(C(=O)c4ccc5c(c4)OCO5)sc3c2)s1,Dose-dependent effect
3,COc1ccc(C(c2cc(C(C)(C)C)c(O)c(C(C)(C)C)c2)N2CCOCC2)cc1 (stereo unspecified),Dose-dependent effect
4,COc1ccc2c(c1)C1C=CCC1C(c1ccc([N+](=O)[O-])cc1)N2 (stereo unspecified),Dose-dependent effect
5,O=C1c2c(O)cccc2Cc2cccc(O)c21,Dose-dependent effect
6,O=C(NC(=S)Nc1ccc(-c2nc3ncccc3o2)cc1)c1ccc(Cl)cc1Cl,Dose-dependent effect
7,O=C(c1ccc2c(c1)C1C=CCC1C(c1ccc(Br)cc1)N2)N1CCCCCC1 (stereo unspecified),Dose-dependent effect
8,N#CC(c1ccc(Cl)cc1)c1c(Cl)cc(-n2ncc(=O)[nH]c2=O)cc1Cl (stereo unspecified),Dose-dependent effect

# Continued, values first:
row,inhibition,Structure (SMILES)
1,Dose-dependent effect,O=S(=O)(Nc1cc(-c2c(O)ccc3ccccc23)c(O)c2ccccc12)c1ccc(F)cc1
2,Dose-dependent effect,CCC(C)(C)C1CCc2c(sc(NC(=O)c3ccoc3C)c2C(N)=O)C1 (stereo unspecified)
3,Dose-dependent effect,O=C(NCCNc1ccc([N+](=O)[O-])cc1)c1ccc(CSc2nnnn2-c2ccccc2)cc1
4,Dose-dependent effect,O=C1/C(=C/c2ccc(-c3ccc(Cl)cc3)o2)SC(=S)N1Cc1ccco1
5,Dose-dependent effect,O=C(O)c1ccc(-c2ccc(/C=C3\SC(=S)N(c4ccc([N+](=O)[O-])cc4)C3=O)o2)cc1
6,Dose-dependent effect,O=C1OC(c2ccccc2)OC(=O)C1=Cc1ccc(-c2cc([N+](=O)[O-])ccc2Cl)o1 (stereo unspecified)
7,Dose-dependent effect,CN(C)c1ccc(/C=C(\NC(=O)c2cccc(F)c2)C(=O)N/N=C/c2cc(Cl)cc([N+](=O)[O-])c2O)cc1
8,Dose-dependent effect,O=C(O)c1ccc(NC(=O)c2ccc3c(c2)C(=O)N(c2ccc(/N=N/c4ccccc4)cc2)C3=O)cc1
9,Dose-dependent effect,C=C[S+]([O-])c1sc(Cl)c(N2CCN(c3c(Cl)sc([S+]([O-])C=C)c3[N+](=O)[O-])CC2)c1[N+](=O)[O-] (stereo unspecified)
10,Dose-dependent effect,O=C1C=C/C(=C\NNc2nc(-c3ccccc3)c(CC(=O)O)s2)C(O)=C1
11,Dose-dependent effect,Cc1ccc(C2=C/C(=C/c3ccc(C)c([N+](=O)[O-])c3)C(=O)O2)c(C)c1

# Molecular target: T2, Uridylate kinase (Escherichia coli (strain K12)) (UniProt P0A7E9)
# T2 sequence (whole entry): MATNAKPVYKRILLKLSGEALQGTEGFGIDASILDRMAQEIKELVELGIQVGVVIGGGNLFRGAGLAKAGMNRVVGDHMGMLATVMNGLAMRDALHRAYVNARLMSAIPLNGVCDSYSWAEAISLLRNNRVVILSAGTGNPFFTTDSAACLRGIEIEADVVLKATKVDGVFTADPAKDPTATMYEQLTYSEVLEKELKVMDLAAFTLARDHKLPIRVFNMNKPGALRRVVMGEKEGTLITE
# Assay: Inhibition of recombinant Escherichia coli UMP kinase pyrH catalyzed UMP phosphorylation in presence of GTP and ATP incubated for 1 hr by luminescence based assay
row,Structure (SMILES),inhibition
1,Clc1ccc(C2N=c3c(-c4ccco4)nnc(-c4nc5ccccc5s4)c3=N2)cc1 (stereo unspecified),inactive
2,Cc1ccc(-c2cc(C(F)(F)F)c3c(N)c(C(=O)c4ccc5c(c4)OCO5)sc3c2)s1,inactive
3,COc1ccc(C(c2cc(C(C)(C)C)c(O)c(C(C)(C)C)c2)N2CCOCC2)cc1 (stereo unspecified),inactive
4,COc1ccc2c(c1)C1C=CCC1C(c1ccc([N+](=O)[O-])cc1)N2 (stereo unspecified),inactive
5,O=C1c2c(O)cccc2Cc2cccc(O)c21,inactive
6,O=C(NC(=S)Nc1ccc(-c2nc3ncccc3o2)cc1)c1ccc(Cl)cc1Cl,inactive
7,O=C(c1ccc2c(c1)C1C=CCC1C(c1ccc(Br)cc1)N2)N1CCCCCC1 (stereo unspecified),inactive
8,N#CC(c1ccc(Cl)cc1)c1c(Cl)cc(-n2ncc(=O)[nH]c2=O)cc1Cl (stereo unspecified),inactive

# Now from value to molecule:
row,inhibition,Structure (SMILES)
1,inactive,O=S(=O)(Nc1cc(-c2c(O)ccc3ccccc23)c(O)c2ccccc12)c1ccc(F)cc1
2,inactive,CCC(C)(C)C1CCc2c(sc(NC(=O)c3ccoc3C)c2C(N)=O)C1 (stereo unspecified)
3,inactive,O=C(NCCNc1ccc([N+](=O)[O-])cc1)c1ccc(CSc2nnnn2-c2ccccc2)cc1
4,inactive,O=C1/C(=C/c2ccc(-c3ccc(Cl)cc3)o2)SC(=S)N1Cc1ccco1
5,inactive,O=C(O)c1ccc(-c2ccc(/C=C3\SC(=S)N(c4ccc([N+](=O)[O-])cc4)C3=O)o2)cc1
6,inactive,O=C1OC(c2ccccc2)OC(=O)C1=Cc1ccc(-c2cc([N+](=O)[O-])ccc2Cl)o1 (stereo unspecified)
7,inactive,CN(C)c1ccc(/C=C(\NC(=O)c2cccc(F)c2)C(=O)N/N=C/c2cc(Cl)cc([N+](=O)[O-])c2O)cc1
8,inactive,O=C(O)c1ccc(NC(=O)c2ccc3c(c2)C(=O)N(c2ccc(/N=N/c4ccccc4)cc2)C3=O)cc1
9,inactive,C=C[S+]([O-])c1sc(Cl)c(N2CCN(c3c(Cl)sc([S+]([O-])C=C)c3[N+](=O)[O-])CC2)c1[N+](=O)[O-] (stereo unspecified)
10,inactive,O=C1C=C/C(=C\NNc2nc(-c3ccccc3)c(CC(=O)O)s2)C(O)=C1
11,inactive,Cc1ccc(C2=C/C(=C/c3ccc(C)c([N+](=O)[O-])c3)C(=O)O2)c(C)c1

# Molecular target: T1, Nucleoside diphosphate phosphatase ENTPD5 (Homo sapiens)
# Assay: Inhibition of human recombinant ENTPD5 expressed in insect cells assessed as reduction in reduction in UDP hydrolysis by measuring inorganic phosphate release incubated for 1 hr by malachite green based assay
row,Structure (SMILES),inhibition
1,Clc1ccc(C2N=c3c(-c4ccco4)nnc(-c4nc5ccccc5s4)c3=N2)cc1 (stereo unspecified),Active
2,Cc1ccc(-c2cc(C(F)(F)F)c3c(N)c(C(=O)c4ccc5c(c4)OCO5)sc3c2)s1,Active
3,COc1ccc(C(c2cc(C(C)(C)C)c(O)c(C(C)(C)C)c2)N2CCOCC2)cc1 (stereo unspecified),Active
4,COc1ccc2c(c1)C1C=CCC1C(c1ccc([N+](=O)[O-])cc1)N2 (stereo unspecified),Active
5,O=C1c2c(O)cccc2Cc2cccc(O)c21,Active
6,O=C(NC(=S)Nc1ccc(-c2nc3ncccc3o2)cc1)c1ccc(Cl)cc1Cl,Active
7,O=C(c1ccc2c(c1)C1C=CCC1C(c1ccc(Br)cc1)N2)N1CCCCCC1 (stereo unspecified),Active
8,N#CC(c1ccc(Cl)cc1)c1c(Cl)cc(-n2ncc(=O)[nH]c2=O)cc1Cl (stereo unspecified),Active

# Results, then the molecule that gave them:
row,inhibition,Structure (SMILES)
1,Active,O=S(=O)(Nc1cc(-c2c(O)ccc3ccccc23)c(O)c2ccccc12)c1ccc(F)cc1
2,Active,CCC(C)(C)C1CCc2c(sc(NC(=O)c3ccoc3C)c2C(N)=O)C1 (stereo unspecified)
3,Active,O=C(NCCNc1ccc([N+](=O)[O-])cc1)c1ccc(CSc2nnnn2-c2ccccc2)cc1
4,Active,O=C1/C(=C/c2ccc(-c3ccc(Cl)cc3)o2)SC(=S)N1Cc1ccco1
5,Active,O=C(O)c1ccc(-c2ccc(/C=C3\SC(=S)N(c4ccc([N+](=O)[O-])cc4)C3=O)o2)cc1
6,Active,O=C1OC(c2ccccc2)OC(=O)C1=Cc1ccc(-c2cc([N+](=O)[O-])ccc2Cl)o1 (stereo unspecified)
7,Active,CN(C)c1ccc(/C=C(\NC(=O)c2cccc(F)c2)C(=O)N/N=C/c2cc(Cl)cc([N+](=O)[O-])c2O)cc1
8,Active,O=C(O)c1ccc(NC(=O)c2ccc3c(c2)C(=O)N(c2ccc(/N=N/c4ccccc4)cc2)C3=O)cc1
9,Active,C=C[S+]([O-])c1sc(Cl)c(N2CCN(c3c(Cl)sc([S+]([O-])C=C)c3[N+](=O)[O-])CC2)c1[N+](=O)[O-] (stereo unspecified)
10,Active,O=C1C=C/C(=C\NNc2nc(-c3ccccc3)c(CC(=O)O)s2)C(O)=C1
11,Active,Cc1ccc(C2=C/C(=C/c3ccc(C)c([N+](=O)[O-])c3)C(=O)O2)c(C)c1

# Reference: ChEMBL document CHEMBL4418495, “Entpd5 inhibitors” (2012)
